Measured values published in US11254685B2, “Abuse-resistant long-acting release opioid prodrugs” (priority 2017, dated 2022).
Where two headings read alike, the source gives them in different places.

How the values were obtained:
[1] = Pharmacokinetic study in rats, single intramuscular injection, plasma prodrug and parent drug by LC-MS/MS; type: in vivo, Sprague-Dawley rats
Procedure: General Procure: The formulations of opioid ester prodrugs are prepared to provide 180 mg/ml suspension by adding 1.8 g of prodrug to a 50 ml glass vial. To the solids is added […] of injection vehicle (2-3% sodium CMC, 0.2% polysorbate 20 in phosphate buffered saline (PBS) pH 7). The resulting mixture is sonicated for 10 min and left standing. The contents of the vial is then shaken until a uniform, clump-free suspension is obtained prior to dosing.
Twelve male Male Sprague-Dawley rats with a body weight approximately 250 g are used in the study. A single intramuscular injection of ester prodrug (180 mg) is administered to rats. Blood samples is collected at 0 (pretreatment) 0.5, 1, 2, 4, 8, 12 and 24 days after administration. Blood is collected with commercially available plastic tubes containing a clot activator. Within 10 min of collection, blood is centrifugation at 2.500 g for 10 min. Plasma is separated and frozen at −18° C. until analyzed by LC-MS/MS. Both prodrug and its corresponding parent drug are analyzed. The pharmacokinetic parameters (AUC, Tmax, Cmax, T1/2, etc) of the test articles are compared to compare the performance of prodrugs to their parent drugs.
Pharmacokinetic Studies for Compounds 2, 3, and 7. Pharmacokinetic studies were conducted for three compounds (Compounds 2, 3 and 7) in rats. The formulations were prepared either in sesame oil (Compound 2, 100 mg eq/mL) or aqueous suspension (Compounds 3 and 7, 100 mg eq/mL and 60 mg eq/mL, respectively). The dosage “eq” refers to the equivalent dosing amount of the respective parent drug, e.g., oxymorphone or hydromorphone in this Example. The sesame oil formulation contains 1.2% benzyl alcohol. The suspension formulation was prepared in PBS buffer containing 2% CMC and 0.2% Tween 80. The particle sizes of the testing compounds in suspension were kept under 10 micron. Both oil and suspension formulations were sterilized by electronic beam before administered to Sprague-Dawley rats.
Twelve Male Sprague-Dawley rats with body weight of approximately 250 gram were randomly divided into three groups. The rats were housed in cages for at least 5 days prior to entering the study and had free access to standard pellets and water during the period. The formulations (0.05 mL) were administered to rats by intra muscular injection via hind leg. Blood (0.10 mL) was sampled by individual tail vein puncture at the following time points: 0.5, 2, 8 hours, 1, 3, 6, 13, 27 days post-dose. Blood was collected into K2EDTA coated tubes and centrifuged at 4° C. at 2000 g in for 10 min to obtain plasma. Plasma (0.05 mL) was immediately quenched with 100 uL methanol/acetonitrile (1:1) containing 50 ng/mL ISTD (Terfenadine and Buspirone). The mixture was vortexed for 1 min and centrifuged at 4000 rpm for 15 min. Supernatant was diluted 2 fold with 0.1% FA in water for injection. Both prodrug and the drug were analyzed using LC-MS/MS on AB Sciex API 5500. The pharmacokinetic parameters were calculated and reported as following.

[2] = monomeric fatty acid, aqueous; Vorum et al. 1992; cited from earlier work
[3] = analyte prodrug Compound 2 in plasma, Compound 2 IM 29.7 mg/kg, sesame oil formulation, Rat #14
[4] = analyte prodrug Compound 2 in plasma, Compound 2 IM 118.11 mg/kg, sesame oil formulation, Rat #1-3, mean
[5] = oxymorphone / Compound 2, Compound 2 IM 29.7 mg/kg, Rat #14
[6] = oxymorphone / Compound 2, Compound 2 IM 118.11 mg/kg, Rat #1-3, mean
[7] = analyte prodrug Compound 7 in plasma, Compound 7 IM 102.5 mg/kg, aqueous suspension, N = 4, mean
[8] = male, Sprague-Dawley, rat, analyte prodrug Compound 7 in plasma, Compound 7 IM 102.5 mg/kg, aqueous suspension, N = 4, mean
[9] = analyte prodrug Compound 3 in plasma, Compound 3 IM 119.14 mg/kg, aqueous suspension, N = 4, mean
[10] = oxymorphone / Compound 3, Compound 3 IM 119.14 mg/kg, N = 4, mean

## Oxymorphone hexadecanate [Compound 2]
[1]; analyte parent drug oxymorphone in plasma, Compound 2 IM 29.7 mg/kg, sesame oil formulation, Rat #14
  AUC Extr: 0.99%
[1]; analyte parent drug oxymorphone in plasma, Compound 2 IM 118.11 mg/kg, sesame oil formulation, Rat #1-3, mean
  AUC Extr: 5.71%
[1]; [3]
  AUC Extr: 42.6%
  AUCInf: 30.3 ng·h/mL
  AUCInf/D: 1.02 kg·ng·h/mL/mg
  AUClast: 17.4 ng·h/mL
  Cmax: 0.54 ng/mL
  MRTInf: 108 h
  t1/2: 76 h
  tmax: 2.00 h
[1]; [4]
  AUC Extr: 39.8%
  AUCInf: 101 ng·h/mL
  AUCInf/D: 0.857 kg·ng·h/mL/mg
  AUClast: 51.3 ng·h/mL
  Cmax: 1.62 ng/mL
  MRTInf: 156 h
  t1/2: 130 h
  tmax: 3.50 h
[1]; [5]
  AUClast Ratio (Parent/Pro): 151
  Cmax Ratio (Parent/Pro): 21
[1]; [6]
  AUClast Ratio (Parent/Pro): 161
  Cmax Ratio (Parent/Pro): 63.7

## CCCCCCCCCCCC(=O)O [laurate]
[2]
  solubility: greater than 500 μM

## CCCCCCCCCCCCCCCCCCCC(=O)Oc1ccc2c3c1O[C@H]1C(=O)CC[C@H]4[C@@H](C2)N(C)CC[C@]314 [Compound 7, Hydromorphone eicosanate]
[1]; [7]
  AUC Extr: 4.36%
  AUCInf/D: 27.8 kg·ng·h/mL/mg
[1]; [8]
  AUC(0-inf): 2850 ng·h/mL
  AUC(0-t): 2760 ng·h/mL
  MRT inf: 138 h
  half-life: 64.4 h
[1]; male, Sprague-Dawley, rat, analyte prodrug Compound 7 in plasma, Compound 7 IM 102.5 mg/kg, aqueous suspension, N = 4, mean, read-out: Cmax
  Cmax: 45.6 ng/mL
[1]; male, Sprague-Dawley, rat, analyte prodrug Compound 7 in plasma, Compound 7 IM 102.5 mg/kg, aqueous suspension, N = 4, mean, read-out: tmax
  tmax: 6.13 h

## Oxymorphone eicosanate [Compound 3]
[1]; analyte parent drug oxymorphone in plasma, Compound 3 IM 119.14 mg/kg, aqueous suspension, N = 4, mean
  AUC Extr: 63.7%
[1]; [9]
  AUC Extr: 29.9%
  AUCInf: 2355 ng·h/mL
  AUCInf/D: 19.8 kg·ng·h/mL/mg
  AUClast: 1711 ng·h/mL
  Cmax: 4.79 ng/mL
  MRTInf: 484 h
  t1/2: 263 h
  tmax: 212 h
[1]; [10]
  AUClast Ratio (Parent/Pro): 4.44
  Cmax Ratio (Parent/Pro): 3.22

## CCCCCCCCCCCCCC(=O)O [myristate]
[2]
  solubility: 20 to 30 µM
